According to patent US10519177B2, “Heterocyclic compounds and uses thereof” (Plexxikon Inc., priority 2013, dated 2019):

tested on: MV-4-11 cells; experiment: Oncology cell growth assay MV-4-11 (CellTiter Glo); format: cell-based; conditions: Homo sapiens, MV4-11, 72 h; MV-4-11, 3d growth; read-out: Cell activity (IC50 μM) MV-4-11 3d-Growth
Description: Published bromodomain inhibitors JQ1 and iBET 151 have shown activity in variety of cancer cells such leukemia and lymphoma, multiple myeloma cells, NUT midline carcinoma and glioblastoma cells (Dawson M A et al. 2011; Delmore J E 2011; Chen Z et al. 2013; Filippakopoulos P et al. 2010; Mertz J A et al. 2011; Ott C J et al. 2012). In this study, we test compounds in different cancer cell lines. MV-4-11 and MOLM-13 are AML cell lines harboring a MLL-AF4 and MLL-AF9 translocation, respectively. MM.1S is a multiple myeloma cell line. SK-N-AS, IMR-32 and SK-N-BE(2) are neuroblastoma cell lines. IMR-32 and SK-N-BE(2) cell lines harbor MYCN amplifications.
MV-4-11, MM.1S, IMR-32, SK-N-AS and SK-N-BE(2) were obtained from ATCC (IL, USA) and MOLM-13 were purchased from DSMZ (Braunschweig, German). Cells are cultured as recommended by their sources. For growth inhibition studies 3000 cells are seeded in wells of a 96-well plate in 75 μL of culture media. After several hours, growth media containing compounds of formula (I) are added to the wells. Compound at a maximal concentration of 5 mM was serially diluted 1:3 for a total of 8 point titration with DMSO as a control. A 1 μL aliquot of each dilution point is added to 249 μL growth media and 75 μL is added to each well containing cells, providing 10 μM compound at the maximum concentration point. The final concentration of DMSO in all wells is 0.2%. Cells are incubated for 72 hours, and 25 μL of CellTiter Glo Reagent (Promega GA, USA) is added to each well. Plates are shaken for approximately 10 minutes and chemiluminescent signal is read on Tecan microplate reader. The measured luminescence correlates directly with cell number.
All data is normalized to the mean of eight DMSO high control wells on each plate. A four parameter curve fit of the following formula was then applied: Y=a+(b−a)/(1+(x/c)^d) Where ‘a’ is the minimum, ‘b’ is the maximum, ‘c’ is the pIC50 and ‘d’ is the Hill slope. […] Myc Reporter Assay

Row | SMILES | IC50
1 | Cc1noc(C)c1-c1cnc2c(I)cn(Cc3ccccc3C#N)c2c1 [P-0921, 2-[[6-(3,5-dimethylisoxazol-4-yl)-3-iodo-pyrrolo[3,2-b]pyridin-1-yl]methyl]benzonitrile] | < 1 µM
2 | COC(=O)c1ccc(-c2c[nH]c3cc(-c4c(C)noc4C)cnc23)cc1 [P-1033, methyl 4-[6-(3,5-dimethylisoxazol-4-yl)-1H-pyrrolo[3,2-b]pyridin-3-yl]benzoate] | 1 to 10 µM
3 | Cc1noc(C)c1-c1ccc2c(I)cn([C@@H](C)c3ccccn3)c2c1 [P-1051, 4-[3-iodo-1-[(1S)-1-(2-pyridyl)ethyl]indol-6-yl]-3,5-dimethyl-isoxazole] | 1 to 10 µM

tested on: bromodomain; experiment: at least one of the bromodomain cell assays of Example 57; format: cell-based; conditions: at least one of the bromodomain cell assays described in Example 57; read-out: IC50 in at least one of the bromodomain cell assays

Row | SMILES | IC50
4 | Cc1noc(C)c1-c1cnc2c(-c3ccc(C(=O)O)cc3)cn(CC3CC4CC4C3)c2c1 (stereo not shown) [P-0621, 4-[1-(3-bicyclo[3.1.0]hexanylmethyl)-6-(3,5-dimethylisoxazol-4-yl)pyrrolo[3,2-b]pyridin-3-yl]benzoic acid] | < 10 µM
5 | Cc1ccc(-c2cn(CC3CCCCC3)c3cc(-c4c(C)noc4C)cnc23)cc1 [P-0622] | < 10 µM
6 | Cc1noc(C)c1-c1cnc2c(-c3ccc(P(=O)(O)O)cc3)cn(CC3CCCCC3)c2c1 [P-0701, [4-[1-(cyclohexylmethyl)-6-(3,5-dimethylisoxazol-4-yl)pyrrolo[3,2-b]pyridin-3-yl]phenyl]phosphonic acid] | < 10 µM
7 | Cc1noc(C)c1-c1cnc2c(-c3ccc(C4(C(=O)O)CC4)cc3)cn(CC3CCCCC3)c2c1 [P-0702, 1-[4-[1-(cyclohexylmethyl)-6-(3,5-dimethylisoxazol-4-yl)pyrrolo[3,2-b]pyridin-3-yl]phenyl]cyclopropanecarboxylic acid] | < 10 µM
8 | Cc1noc(C)c1-c1cnc2c(-c3ccc(C(C)(C)C(=O)O)cc3)cn(CC3CCCCC3)c2c1 [P-0703, 2-[4-[1-(cyclohexylmethyl)-6-(3,5-dimethylisoxazol-4-yl)pyrrolo[3,2-b]pyridin-3-yl]phenyl]-2-methyl-propanoic acid] | < 10 µM
9 | Cc1noc(C)c1-c1cnc2c(-c3ccc(CO)cc3)cn(CC3CCCCC3)c2c1 [P-0704, [4-[1-(cyclohexylmethyl)-6-(3,5-dimethylisoxazol-4-yl)pyrrolo[3,2-b]pyridin-3-yl]phenyl]methanol] | < 10 µM
10 | COC(=O)c1ccc(-c2cn(CC3CCCCC3)c3cc(-c4c(C)noc4C)cnc23)cc1 [P-0706, methyl 4-[1-(cyclohexylmethyl)-6-(3,5-dimethylisoxazol-4-yl)pyrrolo[3,2-b]pyridin-3-yl]benzoate] | < 10 µM
11 | CCOC(=O)c1ccc(-c2cn(CC3CCCCC3)c3cc(-c4c(C)noc4C)cnc23)cc1 [P-0707, ethyl 4-[1-(cyclohexylmethyl)-6-(3,5-dimethylisoxazol-4-yl)pyrrolo[3,2-b]pyridin-3-yl]benzoate] | < 10 µM
12 | Cc1noc(C)c1-c1cnc2c(-c3ccc(B(O)O)cc3)cn(CC3CCCCC3)c2c1 [P-0709, [4-[1-(cyclohexylmethyl)-6-(3,5-dimethylisoxazol-4-yl)pyrrolo[3,2-b]pyridin-3-yl]phenyl]boronic acid] | < 10 µM
13 | Cc1noc(C)c1-c1cnc2c(F)cn([C@@H](c3ccccc3)c3ccccn3)c2c1 [P-0712, 4-[3-fluoro-1-[(S)-phenyl(2-pyridyl)methyl]pyrrolo[3,2-b]pyridin-6-yl]-3,5-dimethyl-isoxazole] | < 10 µM
14 | Cc1noc(C)c1-c1cnc2c(-c3ccc(CO)cc3)cn([C@@H](c3ccccc3)c3ccccn3)c2c1 [P-0713, [4-[6-(3,5-dimethylisoxazol-4-yl)-1-[(S)-phenyl(2-pyridyl)methyl]pyrrolo[3,2-b]pyridin-3-yl]phenyl]methanol] | < 10 µM
15 | Cc1ccc(-c2cn([C@@H](c3ccccc3)c3ccccn3)c3cc(-c4c(C)noc4C)cnc23)cc1 [P-0714, 3,5-dimethyl-4-[1-[(S)-phenyl(2-pyridyl)methyl]-3-(p-tolyl)pyrrolo[3,2-b]pyridin-6-yl]isoxazole] | < 10 µM
16 | COC(=O)c1ccc(-c2cn([C@@H](c3ccccc3)c3ccccn3)c3cc(-c4c(C)noc4C)cnc23)cc1 [P-0715, methyl 4-[6-(3,5-dimethylisoxazol-4-yl)-1-[(S)-phenyl(2-pyridyl)methyl]pyrrolo[3,2-b]pyridin-3-yl]benzoate] | < 10 µM
17 | CCOC(=O)c1ccc(-c2cn([C@@H](c3ccccc3)c3ccccn3)c3cc(-c4c(C)noc4C)cnc23)cc1 [P-0716, ethyl 4-[6-(3,5-dimethylisoxazol-4-yl)-1-[(S)-phenyl(2-pyridyl)methyl]pyrrolo[3,2-b]pyridin-3-yl]benzoate] | < 10 µM

Next, values leading:

Row | IC50 | SMILES
18 | < 10 µM | Cc1noc(C)c1-c1ccc2c(-c3cnn(C)c3)cn(S(=O)(=O)c3ccccc3)c2c1 [P-0230, 4-[1-(benzenesulfonyl)-3-(1-methylpyrazol-4-yl)indol-6-yl]-3,5-dimethyl-isoxazole]
19 | < 10 µM | Cc1noc(C)c1-c1ccc2c(-c3cnn(C)c3)cn(S(=O)(=O)C3CCCC3)c2c1 [P-0231, 4-[1-cyclopentyl-sulfonyl-3-(1-methyl-pyrazol-4-yl)indol-6-yl]-3,5-dimethyl-isoxazole]
20 | < 10 µM | COC(=O)c1ccc(-c2cn(CC3CC4CC4C3)c3cc(-c4c(C)noc4C)cnc23)cc1 (stereo not shown) [P-0609, methyl 4-[1-(3-bicyclo[3.1.0]hexanylmethyl)-6-(3,5-dimethylisoxazol-4-yl)pyrrolo[3,2-b]pyridin-3-yl]benzoate]
21 | < 10 µM | COC(=O)c1ccc(-c2cn(C(c3ccccc3)c3ccccn3)c3cc(-c4c(C)noc4C)cnc23)cc1 (stereo not shown) [P-0610, methyl 4-[6-(3,5-dimethylisoxazol-4-yl)-1-[phenyl(2-pyridyl)methyl]pyrrolo[3,2-b]pyridin-3-yl]benzoate]
22 | < 10 µM | Cc1noc(C)c1-c1cnc2c(-c3ccc(C(=O)O)cc3)cn(C(c3ccccc3)c3ccccn3)c2c1 (stereo not shown) [P-0611, 4-[6-(3,5-dimethylisoxazol-4-yl)-1-[phenyl(2-pyridyl)methyl]pyrrolo[3,2-b]pyridin-3-yl]benzoic acid]
23 | < 10 µM | Cc1cc(-c2cnc3c(-c4ccc(C(=O)OC(C)(C)C)cc4)cn(CC4CCC(F)(F)CC4)c3c2)cn(C)c1=O [P-0612, tert-butyl 4-[1-[(4,4-difluorocyclohexyl)methyl]-6-(1,5-dimethyl-6-oxo-3-pyridyl)pyrrolo[3,2-b]pyridin-3-yl]benzoate]
24 | < 10 µM | Cc1cc(-c2cnc3c(-c4ccc(C(=O)O)cc4)cn(CC4CCC(F)(F)CC4)c3c2)cn(C)c1=O [P-0613, 4-[1-[(4,4-difluorocyclohexyl)methyl]-6-(1,5-dimethyl-6-oxo-3-pyridyl)pyrrolo[3,2-b]pyridin-3-yl]benzoic acid]
25 | < 10 µM | Cc1noc(C)c1-c1cnc2c(-c3ncc(C(=O)O)cn3)cn(CC3CCC(F)(F)CC3)c2c1 [P-0614, 2-[1-[(4,4-difluorocyclohexyl)methyl]-6-(3,5-dimethylisoxazol-4-yl)pyrrolo[3,2-b]pyridin-3-yl]pyrimidine-5-carboxylic acid]
26 | < 10 µM | [2H]C([2H])([2H])c1noc(C([2H])([2H])[2H])c1-c1cnc2c(-c3cnn(CC(F)(F)F)c3)cn(CC3CCC(F)(F)CC3)c2c1 [P-0615, 4-[1-[(4,4-difluorocyclohexyl)methyl]-3-[1-(2,2,2-trifluoroethyl)pyrazol-4-yl]pyrrolo[3,2-b]pyridin-6-yl]-3,5-bis(trideuteriomethyl)isoxazole]
27 | < 10 µM | Cc1noc(C)c1-c1cnc2c(I)cn(C(c3ccccc3)c3ccccc3)c2c1 [P-0616, 4-(1-benzhydryl-3-iodo-pyrrolo[3,2-b]pyridin-6-yl)-3,5-dimethyl-isoxazole]
28 | < 10 µM | COC(=O)c1ccc(-c2cn(C(c3ccccc3)c3ccccc3)c3cc(-c4c(C)noc4C)cnc23)cc1 [P-0617, methyl 4-[1-benzhydryl-6-(3,5-dimethylisoxazol-4-yl)pyrrolo[3,2-b]pyridin-3-yl]benzoate]
29 | < 10 µM | Cc1noc(C)c1-c1cnc2c(-c3ccc(C(=O)OC(C)C)cc3)cn(CC3CCC(F)(F)CC3)c2c1 [P-0618, isopropyl 4-[1-[(4,4-difluorocyclohexyl)methyl]-6-(3,5-dimethylisoxazol-4-yl)pyrrolo[3,2-b]pyridin-3-yl]benzoate]
30 | < 10 µM | Cc1noc(C)c1-c1cnc2c(-c3ccc(S(C)(=O)=O)cc3)cn(CC3CCC(F)(F)CC3)c2c1 [P-0619, 4-[1-[(4,4-difluorocyclohexyl)methyl]-3-(4-methylsulfonylphenyl)pyrrolo[3,2-b]pyridin-6-yl]-3,5-dimethyl-isoxazole]
31 | < 10 µM | Cc1noc(C)c1-c1cnc2c(-c3ccc(C(=O)O)cc3)cn(C(c3ccccc3)c3ccccc3)c2c1 [P-0620, 4-[1-benzhydryl-6-(3,5-dimethylisoxazol-4-yl)pyrrolo[3,2-b]pyridin-3-yl]benzoic acid]
